“Also recorded” adds a separate entry of the source.
What was measured:
DBA/2J (D2) mice [1] = experiment: Intraocular pressure (IOP) in D2 mice; assay type: in vivo, mouse; settings: NAM in drinking water (data not shown)
Text: Following the onset of iris disease around 6 months of age, intraocular pressure began to increase (FIG. 2). A typical “normal” IOP in a D2 mouse eye is ˜13 mmHg, which increases progressively from 6 to 12 months, to values that can typically exceed 20 mmHg. By 9 months of age, IOP was/had been elevated in the majority of the eyes of the D2 mice. IOP increases in D2 eyes were age-related and asynchronous, as well as being highly variable. In our colony, females tend to have higher/early onsets of elevated IOP (FIG. 2). […] Importantly, NAM was protective both prophylactically (starting at 6-month, early start; prior to IOP elevation in the vast majority of eyes in the colony), and as an intervention (starting at 9-month, late start; when the majority of eyes have had continuing IOP elevation). This signifies that NAM is able to both prevent neuronal injury from occurring as well as limiting neuronal injury to already insulted neurons (FIG. 6). This is important for human disease where treatment would only start once a disease has become symptomatic and thus detectable.

retinal ganglion cells = experiment: Retinal ganglion cell analyses in NAM-treated D2 mice (data not shown); assay type: in vivo, mouse
Text: In addition, many ocular and neurodegenerative diseases occur in the elderly due to age-dependent molecular chances that increase susceptibility to damage. […] Furthermore, axonal degeneration and somal shrinkage may represent common components in some neurodegenerative diseases. NAM prevents these changes based on the data above at least in glaucoma treatment.

NAD levels = NAD levels in NAM-treated D2 mice; assay type: in vivo, mouse; settings: NAM 550 mg/kg/d in drinking water
DBA/2J (D2) mice [2] = experiment: Glaucomatous neurodegeneration in D2 mice at 12 months (optic nerve damage grading, soma loss, visual function, axonal transport); assay type: in vivo, mouse; settings: for protection from developing glaucoma / optic nerve degeneration: NAM 550 mg/kg/d in drinking water, assessed at 12 months
Protocol: From left, DBA/2J control—D2 mice on standard drinking water; Nicotinamide)(NAM^Lo) early start—D2 mice on standard drinking water supplemented with 550 mg/kg/day NAM from 6 months of age (pre-disease); Nicotinamide)(NAM^Lo) late start—D2 mice on standard drinking water supplemented with 550 mg/kg/day NAM from 9 months of age (during disease); Nicotinamide (NAM^Hi) early start—D2 mice on standard drinking water supplemented with 2,000 mg/kg/day NAM from 6 months of age (pre-disease); Pyruvate—D2 mice on standard drinking water supplemented with 500 mg/kg/day pyruvate from 6 months of age (pre-elevated IOP); NAM^Lo+Pyruvate—D2 mice on standard drinking water supplemented with 550 mg/kg/day NAM+500 mg/kg/day pyruvate from 6 months of age (pre-disease); D2.Wld^S—D2 mice carrying the Wld^S transgene (altered NMNAT enzyme that enhances enzymatic activity) on standard drinking water; D2.Wld^S+Nicotinamide)(NAM^Lo)—D2 mice carrying the Wld^S transgene (altered NMNAT enzyme) on standard drinking water with 550 mg/kg/day NAM from 6 months of age (pre-elevated IOP).
To determine the fate of the retinal ganglion cells following prolonged period of elevated IOP in the D2 mice, we used PPD staining of the optic nerve to reveal the extent of retinal and/or optic nerve neurodegeneration, as PPD darkly stains the axoplasm of dead/dying axons.
For this purpose, we distinguished optic nerves as having one of three levels of damage: no glaucoma, where there is <5% axon loss in the optic nerve, these nerves are indistinguishable from young controls; moderate glaucoma, with […], and evidence of darkly stained axons; or severe glaucoma, with >50% axon loss, and typically accompanied by gliosis/gliotic scarring.
We conducted this in vivo experiment using a large cohort of D2 mice. In this experiment, optic nerves were classified into three damage levels: NO (no glaucoma), MOD (moderate damage), and SEV (severe damage).
Experimental D2 mice were divided into the following groups and were given:
W=water (standard mouse water)
NAM or NAM^Lo=550 mg/kg/d NAM in drinking water
Early=early start=pre-glaucoma=6-month of age (i.e. prophylactic)
Late=late start=during glaucoma=9-month of age (when mice already have high IOP, i.e. interventional, and more relative to human glaucoma)
Mice were then assessed at 12-month for optic nerve damage, soma loss, visual function, and axonal transport (data not shown).

[3] = test system: lipid droplets in DBA/2J retinas; experiment: Lipid droplet formation in the inner retina by Oil Red O staining; assay type: in vivo, mouse; settings: 12 month of age DBA/2J mice, versus untreated
Protocol: Lipid droplet formation in the inner retina was assessed by Oil Red O staining, which brightly stained neutral triglycerides and lipids. Following intraocular pressure elevation, lipid droplets were present within the inner retina of DBA/2J mice. At 6 months of age, the majority of retinas were negative for lipid droplets. By 9 months of age, small and dispersed lipid droplets were present in some eyes. By 12 months of age, lipid accumulation was present in the majority of eyes in retinas that had not yet developed glaucoma (no glaucoma). In eyes that had developed severe glaucoma, lipid droplets were present across the retina in the majority of eyes. GCL=ganglion cell layer (retinal ganglion cell bodies), IPL=inner plexiform layer (retinal ganglion cell dendrites and synapses). Haematoxylin (dark blue/purple) is a general marker of cell nuclei used as a counter-stain.
Lipid droplet formation was assessed in retinas from nicotinamide-treated DBA/2J mice. […] GCL=ganglion cell layer (retinal ganglion cell bodies), IPL=inner plexiform layer (retinal ganglion cell dendrites and synapses). Haematoxylin (dark blue/purple) is a general marker of cell nuclei used as a counter-stain.
Again, lipid/fat droplet formation in the inner retina was assessed by Oil Red O staining. […]
Lipid droplet formation was assessed in retinas from nicotinamide-treated DBA/2J mice.

mice = experiment: PQQ tolerability in mice; assay type: in vivo, mouse
Protocol: With regard to PQQ, it is tolerated at least at 2,000 mg/kg/day in mice. The neuroprotective effect provided by PQQ is about 20-2,000 mg/kg/day, about 100-1,000 mg/kg/day, or about 500 mg/kg/day in mice.

DBA/2J (D2) mice [4] = settings: cited from earlier work
DBA/2J (D2) mice [5] = settings: cited from earlier work; remark: listed apart in the source

## NC(=O)c1cccnc1 [NAM, nicotinamide]
DBA/2J (D2) mice [1]
  effect on IOP: did not alter IOP
Retinal ganglion cells; data not shown
  early synapse loss: protects early synapse loss
  formation of dysfunctional mitochondria with abnormal cristae: inhibits the formation of dysfunctional mitochondria with abnormal cristae
  retinal ganglion cell dysfunction and degeneration: robustly prevent retinal ganglion cell dysfunction and degeneration
Retinal ganglion cells; gene expression, data not shown
  age-related gene expression / molecular changes in RGCs: prevents age-related gene expression In RGCs; also recorded: prevents age-related molecular changes
Retinal ganglion cells; glaucoma
  axonal degeneration and somal shrinkage: prevents axonal degeneration and somal shrinkage
Retinal ganglion cells; immunostaining, data not shown
  PARP activation: decreases PARP activation
  molecular signs of glaucoma: prevents molecular signs of glaucoma
NAD levels
  decline of NAD levels: prevent the decline of NAD levels
DBA/2J (D2) mice [2]
  protection from developing glaucoma / optic nerve degeneration: protect the D2 mice from all detectable signs of glaucoma through 12 months; also recorded: robustly protected D2 mice from developing glaucoma
DBA/2J (D2) mice [2]; listed as nicotinamide
  protection from developing glaucoma / optic nerve degeneration: protects against optic nerve degeneration
DBA/2J (D2) mice [2]; NAM administration
  glaucoma in the majority of the treated eyes, including PERG: completely prevents glaucoma
DBA/2J (D2) mice [2]; NAM early start at 6-month, prior to IOP elevation
  protection from glaucoma, prophylactic: protects against glaucomatous neurodegeneration prophylactically; also recorded: protective
DBA/2J (D2) mice [2]; NAM late start at 9-month, continuing IOP elevation
  protection from glaucoma, as an intervention: protective
[3]
  lipid droplet accumulation in retinas: completely prevented

## O=C(O)c1cc(C(=O)O)c2c(n1)C(=O)C(=O)c1cc(C(=O)O)[nH]c1-2 [PQQ, Pyrroloquinoline Quinone]
mice
  tolerated dose: ≥ 2,000 mg/kg/day

## CC(C)OC(=O)CCC/C=C\C[C@@H]1[C@@H](CC[C@@H](O)CCc2ccccc2)[C@H](O)C[C@@H]1O [Latanoprost]
DBA/2J (D2) mice [4]
  IOP after topical administration: lowers IOP
DBA/2J (D2) mice [5]
  risk of developing neurodegeneration after topical administration: reduces the risk of developing neurodegeneration

## CC12CC3CC(C)(C1)CC(N)(C3)C2 [memantine]
DBA/2J (D2) mice [4]
  IOP after topical administration: lowers IOP
DBA/2J (D2) mice [5]
  risk of developing neurodegeneration after topical administration: reduces the risk of developing neurodegeneration

## CC(C)(C)NC[C@H](O)COc1nsnc1N1CCOCC1 [timolol]
DBA/2J (D2) mice [4]
  IOP after topical administration: lowers IOP
DBA/2J (D2) mice [5]
  risk of developing neurodegeneration after topical administration: reduces the risk of developing neurodegeneration

— US11369695B2, “Fat droplets in retina and optic nerve as a diagnostic marker for neurodegeneration and glaucoma in humans” (The Jackson Laboratory, priority 2016, dated 2022)
